The record followed here is patent US20250327794A1, “FLUOROMETRIC METHODS FOR DETECTION OF ALLERGIC SENSITIVITY TO ENVIRONMENTAL, FOODSTUFF, AND MEDICAMENT STIMULANTS” (CELL SCIENCE SYSTEMS CORPORATION, priority 2022, published 2025).

Test [1] deals with Basophils (CD63+/CD203c+). As to the kind of experiment: Basophil activation by COVID-19 vaccines and vaccine components, blood of a hypersensitive subject. The class given is cell-based, human. The note with it: subject with known allergic reaction to mRNA-1273 booster.
The subject of a further test is Neutrophils (CD11b+). The class given is cell-based, human.

Consider “2,2-dimyristoyl-rac-glycero3-methoxypolyethylene glycol-2000 [PEG2000-DMG]”, for which the “basophil activation and gross granulocyte activation in response to vaccine components” value in test [1] is “marked increase”. Also, in the test on Neutrophils (CD11b+), the “percent neutrophil activation versus control, vaccine components” value is recorded as “higher percent neutrophil activation versus control”.
On the same counts, the results for “2-[(polyethylene glycol)-2000]-N,N-ditetradecylacetamide [ALC0159]” are “marked increase” and “higher percent neutrophil activation versus control”.
For 2-hydroxypropyl-β-cyclodextrin [HBCD], the “percent neutrophil activation versus control, vaccine components” value with Neutrophils (CD11b+) is reported as “higher percent neutrophil activation versus control”.
`CCCCCCCCC(CCCCCC)C(=O)OCCCCCCN(CCCCO)CCCCCCOC(=O)C(CCCCCC)CCCCCCCC` (stereo not shown) [ALC0315]: the “basophil activation and gross granulocyte activation in response to vaccine components” value in test [1] is recorded as “marked increase”. Moreover, the “percent neutrophil activation versus control, vaccine components” value in the test with Neutrophils (CD11b+) is “higher percent neutrophil activation versus control”.
With `CCCCCCCCCCCCCCCCCC(=O)OC[C@H](COP(=O)([O-])OCC[N+](C)(C)C)OC(=O)CCCCCCCCCCCCCCCCC` [DSPC, 1,2-diastearoyl-sn-glycero-3-phosphocholine], the “percent neutrophil activation versus control, vaccine components” value in the test with Neutrophils (CD11b+) is reported as “did not”.
Turning to `CCCCCCCCCCCOC(=O)CCCCCN(CCO)CCCCCCCC(=O)OC(CCCCCCCC)CCCCCCCC` [SM102], in test [1], the “basophil activation and gross granulocyte activation in response to vaccine components” value is reported as “marked increase”. The “percent neutrophil activation versus control, vaccine components” value in the test on Neutrophils (CD11b+) was “higher percent neutrophil activation versus control”.
Take `CCO` [ethanol]: the “percent neutrophil activation versus control, vaccine components” value in the test with Neutrophils (CD11b+) is recorded as “did not”.
In the case of polysorbate-80 [PS80], the “basophil activation and gross granulocyte activation in response to vaccine components” value in test [1] was “marked increase”. Also, the “percent neutrophil activation versus control, vaccine components” value in the test with Neutrophils (CD11b+) is on record as “higher percent neutrophil activation versus control”.
